Patent US10597388B2, “Pyridazinone herbicides” (FMC CORPORATION, priority 2014, dated 2020)

What was measured:
Type in all cases: in vivo
[1] = test system: morningglory (Ipomoea coccinea); assay: Test C greenhouse herbicide test, pre- and postemergence
Excerpt: (§1) Seeds of plant species selected from blackgrass (Alopecurus myosuroides), ryegrass, Italian (Italian ryegrass, Lolium multiflorum), wheat (winter wheat, Triticum aestivum), galium (catchweed bedstraw, Galium aparine), corn (Zea mays), large crabgrass, large (large crabgrass, Digitaria sanguinalis), foxtail, giant (giant foxtail, Setaria faberii), johnsongrass (Sorghum halepense), lambsquarters (Chenopodium album), morningglory (Ipomoea coccinea), nutsedge, yellow (yellow nutsedge, Cyperus esculentus), pigweed (Amaranthus retroflexus), ragweed (common ragweed, Ambrosia elatior), soybean (Glycine max), barnyardgrass (Echinochloa crus-galli), oilseed rape (Brassica napus), waterhemp (common waterhemp, Amaranthus rudis), and velvetleaf (Abutilon theophrasti) were planted into a blend of loam soil and sand and treated preemergence with test chemicals formulated in a non-phytotoxic solvent mixture which included a surfactant.
(§2) At the same time, plants selected from these crop and weed species and also chickweed (common chickweed, Stellaria media), kochia (Kochia scoparia), and oat, wild (wild oat, Avena fatua), were planted in pots containing Redi-Earth® planting medium (Scotts Company, 14111 Scottslawn Road, Marysville, Ohio 43041) comprising spaghnum peat moss, vermiculite, wetting agent and starter nutrients and treated with postemergence applications of test chemicals formulated in the same manner. Plants ranged in height from 2 to 18 cm (1- to 4-leaf stage) for postemergence treatments. Treated plants and controls were maintained in a greenhouse for 13 to 15 d, after which time all species were compared to controls and visually evaluated. Plant response ratings, summarized in Table C, are based on a scale of 0 to 100 where 0 is no effect and 100 is complete control. A dash (-) response means no test result.

[2] = test system: wheat (winter wheat, Triticum aestivum); assay: as above
Excerpt: as §1, §2

[3] = test system: foxtail, giant (giant foxtail, Setaria faberii); assay: as above
Excerpt: as §1, §2

[4] = test system: barnyardgrass (Echinochloa crus-galli); assay: as above
Excerpt: as §1, §2

[5] = test system: soybean (Glycine max); assay: as above
Excerpt: as §1, §2

[6] = test system: pigweed (Amaranthus retroflexus); assay: as above
Excerpt: as §1, §2

[7] = test system: waterhemp (common waterhemp, Amaranthus rudis); assay: as above
Excerpt: as §1, §2

[8] = test system: ragweed (common ragweed, Ambrosia elatior); assay: as above
Excerpt: as §1, §2

[9] = test system: johnsongrass (Sorghum halepense); assay: as above
Excerpt: as §1, §2

[10] = test system: crabgrass, large (large crabgrass, Digitaria sanguinalis); assay: as above
Excerpt: as §1, §2

[11] = test system: ryegrass, Italian (Italian ryegrass, Lolium multiflorum); assay: as above
Excerpt: as §1, §2

[12] = test system: blackgrass (Alopecurus myosuroides); assay: as above
Excerpt: as §1, §2

[13] = test system: corn (Zea mays); assay: as above
Excerpt: as §1, §2

[14] = test system: lambsquarters (Chenopodium album); assay: as above
Excerpt: as §1, §2

[15] = test system: oat, wild (wild oat, Avena fatua); assay: Test C greenhouse herbicide test, postemergence
Excerpt: as §2

[16] = test system: kochia (Kochia scoparia); assay: Test C greenhouse herbicide test, postemergence
Excerpt: as §2

[17] = Postemergence, 31 g ai/ha, 0 to 100 scale (0 no effect, 100 complete control)
[18] = Postemergence, 125 g ai/ha, scale 0 to 100, 0 is no effect, 100 is complete control
[19] = Postemergence, 250 g ai/ha, scale 0 to 100, 0 no effect, 100 complete control, 13 to 15 d
[20] = Preemergence, 31 g ai/ha, scale 0 to 100, 0 is no effect, 100 is complete control
[21] = Preemergence, 62 g ai/ha, scale 0 to 100, 0 is no effect, 100 is complete control
[22] = Preemergence, 125 g ai/ha, scale 0 to 100, 0 is no effect, 100 is complete control
[23] = Preemergence, 250 g ai/ha, scale 0 to 100 (0 no effect, 100 complete control)
[24] = postemergence, 62 g ai/ha, scale 0 to 100, 0 no effect, 100 complete control

Cc1ccc2sc(C)c(-c3c(O)c(C)nn(C)c3=O)c2c1 [Compound 1, 4-(2,5-dimethylbenzo[b]thien-3-yl)-5-hydroxy-2,6-dimethyl-3(2H)-pyridazinone]
Morningglory plant response rating [1, 17]: 100
Plant response rating, Morningglory [1, 18]: 100
Plant response rating, Morningglory [1, 19]: 100
Plant response rating, Morningglory [1, 20]: 95
Plant response rating, Morningglory [1, 21]: 100
Plant response rating, Morningglory [1, 22]: 100
Morningglory plant response rating [1, 23]: 100
Morningglory plant response rating [1, 24]: 100
Wheat plant response rating [2, 17]: 0
Plant response rating, Wheat [2, 18]: 10
Plant response rating, Wheat [2, 19]: 15
Plant response rating, Wheat [2, 21]: 0
Plant response rating, Wheat [2, 22]: 5
Wheat plant response rating [2, 23]: 20
Wheat plant response rating [2, 24]: 0
Foxtail, Giant plant response rating [3, 17]: 35
Plant response rating, Foxtail, Giant [3, 18]: 60
Plant response rating, Foxtail, Giant [3, 19]: 90
Plant response rating, Foxtail, Giant [3, 20]: 55
Plant response rating, Foxtail, Giant [3, 21]: 75
Plant response rating, Foxtail, Giant [3, 22]: 100
Foxtail, Giant plant response rating [3, 23]: 100
Foxtail, Giant plant response rating [3, 24]: 15
Barnyardgrass plant response rating [4, 17]: 0
Plant response rating, Barnyardgrass [4, 18]: 5
Plant response rating, Barnyardgrass [4, 19]: 5
Plant response rating, Barnyardgrass [4, 20]: 5
Plant response rating, Barnyardgrass [4, 21]: 5
Plant response rating, Barnyardgrass [4, 22]: 25
Barnyardgrass plant response rating [4, 23]: 90
Barnyardgrass plant response rating [4, 24]: 5
Soybean plant response rating [5, 17]: 0
Plant response rating, Soybean [5, 18]: 5
Plant response rating, Soybean [5, 19]: 5
Plant response rating, Soybean [5, 21]: 0
Plant response rating, Soybean [5, 22]: 0
Soybean plant response rating [5, 23]: 0
Soybean plant response rating [5, 24]: 0
Pigweed plant response rating [6, 17]: 95
Plant response rating, Pigweed [6, 18]: 98
Plant response rating, Pigweed [6, 19]: 100
Plant response rating, Pigweed [6, 20]: 100
Plant response rating, Pigweed [6, 21]: 100
Plant response rating, Pigweed [6, 22]: 100
Pigweed plant response rating [6, 23]: 100
Pigweed plant response rating [6, 24]: 95
Waterhemp plant response rating [7, 17]: 95
Plant response rating, Waterhemp [7, 18]: 100
Plant response rating, Waterhemp [7, 19]: 100
Plant response rating, Waterhemp [7, 21]: 100
Plant response rating, Waterhemp [7, 22]: 100
Waterhemp plant response rating [7, 23]: 100
Waterhemp plant response rating [7, 24]: 95
Ragweed plant response rating [8, 17]: 90
Plant response rating, Ragweed [8, 18]: 95
Plant response rating, Ragweed [8, 19]: 95
Plant response rating, Ragweed [8, 20]: 90
Plant response rating, Ragweed [8, 21]: 80
Plant response rating, Ragweed [8, 22]: 100
Ragweed plant response rating [8, 23]: 98
Ragweed plant response rating [8, 24]: 95
Johnsongrass plant response rating [9, 17]: 0
Plant response rating, Johnsongrass [9, 18]: 0
Plant response rating, Johnsongrass [9, 19]: 15
Plant response rating, Johnsongrass [9, 20]: 0
Plant response rating, Johnsongrass [9, 21]: 5
Plant response rating, Johnsongrass [9, 22]: 5
Johnsongrass plant response rating [9, 23]: 5
Johnsongrass plant response rating [9, 24]: 0
Crabgrass, Large plant response rating [10, 17]: 20
Plant response rating, Crabgrass, Large [10, 18]: 25
Plant response rating, Crabgrass, Large [10, 19]: 35
Plant response rating, Crabgrass, Large [10, 20]: 35
Plant response rating, Crabgrass, Large [10, 21]: 40
Plant response rating, Crabgrass, Large [10, 22]: 80
Crabgrass, Large plant response rating [10, 23]: 100
Crabgrass, Large plant response rating [10, 24]: 10
Ryegrass, Italian plant response rating [11, 17]: 80
Plant response rating, Ryegrass, Italian [11, 18]: 95
Plant response rating, Ryegrass, Italian [11, 19]: 98
Plant response rating, Ryegrass, Italian [11, 20]: 95
Plant response rating, Ryegrass, Italian [11, 21]: 100
Plant response rating, Ryegrass, Italian [11, 22]: 100
Ryegrass, Italian plant response rating [11, 23]: 100
Ryegrass, Italian plant response rating [11, 24]: 90
Blackgrass plant response rating [12, 17]: 20
Plant response rating, Blackgrass [12, 18]: 60
Plant response rating, Blackgrass [12, 19]: 75
Plant response rating, Blackgrass [12, 20]: 60
Plant response rating, Blackgrass [12, 21]: 90
Plant response rating, Blackgrass [12, 22]: 90
Blackgrass plant response rating [12, 23]: 90
Blackgrass plant response rating [12, 24]: 50
Corn plant response rating [13, 17]: 0
Plant response rating, Corn [13, 18]: 5
Plant response rating, Corn [13, 19]: 40
Plant response rating, Corn [13, 20]: 0
Plant response rating, Corn [13, 21]: 0
Plant response rating, Corn [13, 22]: 0
Corn plant response rating [13, 23]: 5
Corn plant response rating [13, 24]: 25
Lambsquarters plant response rating [14, 17]: 85
Plant response rating, Lambsquarters [14, 18]: 100
Plant response rating, Lambsquarters [14, 19]: 100
Plant response rating, Lambsquarters [14, 20]: 80
Plant response rating, Lambsquarters [14, 21]: 95
Plant response rating, Lambsquarters [14, 22]: 100
Lambsquarters plant response rating [14, 23]: 100
Lambsquarters plant response rating [14, 24]: 100
Oat, Wild plant response rating [15, 17]: 50
Plant response rating, Oat, Wild [15, 18]: 85
Plant response rating, Oat, Wild [15, 19]: 100
Oat, Wild plant response rating [15, 24]: 70
Kochia plant response rating [16, 17]: 95
Plant response rating, Kochia [16, 18]: 95
Plant response rating, Kochia [16, 19]: 100
Kochia plant response rating [16, 24]: 95
